Experiment: stability of crystals of the hydrochloride salt
Assay type: physicochemical
Experimental: Dimethylamine (approximately 10 ml) was condensed at -80° C. in a pressure tube and to this was added a solution of N-(4-azidobut-2-ynyl)-2-(R)-(1-(R)-(3,5-bis(trifluoromethyl) phenyl)ethoxy)-3-(S)-(4-fluorophenyl)morpholine (3.2 g) in dioxan (15 ml). The tube was sealed and the solution was heated at 90° C. for 16 h. The solution was evaporated to dryness and the residue chromatographed on silica gel (eluting with 5% methanol in dichloromethane containing 0.25% ammonia (SG. 0.88)) and the fractions containing the desired product were evaporated in vacuo to give the title compound. To a solution of this residue in diethyl ether was added 1M-HCl in methanol. The solution was evaporated to dryness and redissolved in diethyl ether to give crystals of the title compound hydrochloride salt m.p. 194°-198° C., [α]^22D +65.0° (C=0.5, H2 O).

stability of crystals (at 40° C.): stable for at least five days | stability of crystals (at 40° C./75% relative humidity): stable for at least five days | stability of crystals (at 80° C.): stable for at least five days | stability of crystals (at 2000LUX): stable for at least five days
Structure (SMILES): C[C@@H](O[C@H]1OCCN(Cc2nn[nH]c2CN(C)C)[C@H]1c1ccc(F)cc1)c1cc(C(F)(F)F)cc(C(F)(F)F)c1 [Example 12]

From US5612337A, “Substituted morpholine derivatives and their use as therapeutic agents” (Merck Sharp & Dohme Limited, priority 1993, dated 1997)
